According to US4710500A, “1-(4'-fluorophenyl)-3,5-substituted indoles useful in the treatment of psychic disorders and pharmaceutical compositions thereof” (H. Lundbeck A/S, priority 1985, dated 1987):
pIC50: −log10 of the molar value. Where two headings read alike, the source gives them in different places.

Experiments:
[1] = target: T1, 5-HT2 receptor (Rattus norvegicus, UniProt P14842); assay: Quipazine inhibition (head twitches); assay type: in vivo; conditions: sc 2 hours before quipazine 15 umol/kg sc
T1 construct: from tissue; host or cells: living rats (in vivo), CNS
T1 sequence (P14842 whole entry): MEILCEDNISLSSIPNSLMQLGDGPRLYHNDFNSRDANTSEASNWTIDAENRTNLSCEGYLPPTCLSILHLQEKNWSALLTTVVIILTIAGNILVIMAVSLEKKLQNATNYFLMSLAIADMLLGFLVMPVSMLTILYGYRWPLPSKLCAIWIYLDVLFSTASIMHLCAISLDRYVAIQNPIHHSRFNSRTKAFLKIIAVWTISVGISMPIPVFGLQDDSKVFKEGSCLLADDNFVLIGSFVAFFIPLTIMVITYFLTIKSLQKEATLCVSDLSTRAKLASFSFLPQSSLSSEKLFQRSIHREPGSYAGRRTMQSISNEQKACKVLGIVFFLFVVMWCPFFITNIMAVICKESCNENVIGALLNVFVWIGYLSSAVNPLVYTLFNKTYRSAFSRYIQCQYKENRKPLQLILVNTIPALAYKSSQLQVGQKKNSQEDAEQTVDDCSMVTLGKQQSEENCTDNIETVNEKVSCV
Protocol: Quipazine and a number of other compounds, which increase 5-HT2 receptor activity in the CNS, induce a characteristic rapid shake (twitch) of the head. This response is inhibited by 5-HT2 receptor antagonists (Vetulani et al. 1980, Arnt et al. 1984).
The test compound or saline is injected subcutaneously 2 hours before subcutaneous injection of quipazine hemimalecate (15umol/kg). At least 3 dose groups, each consisting of at least 4 rats, are used. The rats are individually placed in observation cages (12×25 cm) and the number of head twitches are counted 30-40 min after quipazine administration. Inhibition of head twitches is expressed in per cent of the number of head twitches in the control group. ED 50 values are calculated by log-probit analysis.
Vetulani, J., B.B. Beduarczyk, K. Reichenberg and A. Rokost: Neuropharmacology 19, 155-158, […].
(§1) Arnt, J., J. Hyttel and J.-J. Larsen: Acta pharmacol. et toxicol. 55, 363-372, 1984.

[2] = Catalepsy; assay type: in vivo, rat
[3] = tested on: methylphenidate-induced gnawing; assay: Methylphenidate antagonism; assay type: in vivo, mice; conditions: for ED50: Mus musculus
[4] = target: T2, serotomin2 (5-HT2) receptors (Rattus norvegicus, UniProt P14842); assay: 3H-spiroperidol binding, 5-HT2 receptors in rat cortical membranes; conditions: in vitro, read-out: 3H-Spiroperidol bindings 5-HT2 receptors IC50
T2 construct: 5-HT2 receptors in rat cortical membranes; from tissue; host or cells: rat cortical membranes
T2 sequence (P14842 whole entry): as above
Protocol: (§2) 4. ^3 H-spiroperidol bindings
The affinity of compounds to dopamine (DA) D-2 receptors and serotomin2 (5-HT2) receptors was determined by in vitro receptor binding technique. Binding of ^3 H-spiroperidol to DA D-2 receptors in rat striatal membranes and to 5-HT2 receptors in rat cortical membranes was determined as described in detail by Arnt et al. (1984).
as §1

[5] = in vivo; conditions: mouse, iv
[6] = target: T3, dopamine (DA) D-2 receptors (Rattus norvegicus, UniProt P61169); assay: 3H-spiroperidol binding, dopamine D-2 receptors in rat striatal membranes
T3 construct: DA D-2 receptors in rat striatal membranes; from tissue; host or cells: rat striatal membranes
T3 sequence (P61169 whole entry): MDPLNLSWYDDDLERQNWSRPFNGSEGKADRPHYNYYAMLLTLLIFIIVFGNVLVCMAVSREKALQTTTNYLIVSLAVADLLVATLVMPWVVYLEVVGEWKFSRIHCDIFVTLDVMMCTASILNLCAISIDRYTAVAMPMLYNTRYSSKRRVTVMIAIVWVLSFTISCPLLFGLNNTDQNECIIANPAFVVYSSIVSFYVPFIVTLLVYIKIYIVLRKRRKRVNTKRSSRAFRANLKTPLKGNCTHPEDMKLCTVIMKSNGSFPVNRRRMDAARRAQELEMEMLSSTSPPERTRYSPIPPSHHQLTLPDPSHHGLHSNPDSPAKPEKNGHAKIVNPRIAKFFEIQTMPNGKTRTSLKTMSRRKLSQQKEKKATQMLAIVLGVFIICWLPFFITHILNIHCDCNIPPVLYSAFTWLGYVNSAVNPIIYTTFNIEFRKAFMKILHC
Protocol: as §2
The affinity of compounds to dopamine (DA) D-2 receptors and serotomin2 (5-HT2) receptors was determined by in vitro receptor binding technique.
Arnt, J., J. Hyttel and J.-J. Larsen: Acta pharmacol. et toxicol.

[7] = i.v., mice; compared with known neuroleptics
[8] = pharmacological testing (general statements); conditions: result in words
Protocol: The compounds of Formula I were tested according to reliable and well recognized pharmacological tests as follows: […]

[9] = i.p. test substance, mice, methylphenidate s.c. 60 mg/kg
[10] = rat striatal membranes, in vitro, read-out: 3H-Spiroperidol bindings DA-2 receptors IC50
[11] = Rattus norvegicus, sc, 24 h, read-out: Catalep. ED50 (sc) 24 h

OCCN1CCN([C@@H]2C[C@@H](c3ccc(F)cc3)c3ccc(C(F)(F)F)cc32)CC1 (racemic) [Tefludazine, reference compound]
Qvipaz. inh. ED50(sc) [1]: 0.06 µmol/kg
Catalep. ED50(po) 1-6 h ([2]; po, rat, 1-6 h): 0.61 µmol/kg
Catalep. ED50(po) 24 h ([2]; po, rat, 24 h): 0.9 µmol/kg
MePh Antg. ED50(ip) [3, 9]: 0.06 µmol/kg
pIC50 [4]: 8.07
LD50 [5]: 120 to 180 µmol/kg
pIC50 [6, 10]: 7.72

OCCN1CCN(c2cn(-c3ccc(F)cc3)c3ccc(C(F)(F)F)cc23)CC1 [Lu 21-152, 1-(4'-Flurophenyl)-3-(4-(2-hydroxyethyl)-piperazino)-5-trifluoromethyl-1H-indole]
Qvipaz. inh. ED50(sc) [1]: 0.023 µmol/kg
acute toxicity [7]: comparatively low acute toxicity
ED50 ([2]; read-out: Catalep. ED50(po) 1-6 h, po, rat, 1-6 h): 0.17 µmol/kg
ED50 ([2]; read-out: Catalep. ED50(po) 24 h, po, rat, 24 h): 0.28 µmol/kg
ED50 ([3]; ip, i.p. test substance, mice, methylphenidate s.c. 60 mg/kg, read-out: MePh Antg. ED50(ip)): 0.11 µmol/kg
pIC50 [4]: 8.13
LD50 [5]: 147 µmol/kg
pIC50 [6, 10]: 8.55

CN1CC=C(c2cn(-c3ccc(F)cc3)c3ccc([N+](=O)[O-])cc23)CC1 [Lu 22-135, 1-(4'-Fluorophenyl)-5-nitro-3-(1-methyl-1,2,3,6-tetrahydropyridin-4-yl)-1H-indole]
Qvipaz. inh. ED50(sc) [1]: 0.009 µmol/kg
acute toxicity [7]: comparatively low acute toxicity
ED50 ([2]; Rattus norvegicus, po, read-out: Catalep. ED50(po) 1-6 h): 0.078 µmol/kg
ED50 [2, 11]: > 0.89 µmol/kg
ED50 ([3]; ip, read-out: MePh Antg. ED50(ip)): 0.1 µmol/kg
pIC50 [4]: 8.72
LD50 [5]: 276 µmol/kg
pIC50 [6]: 8.96

CN1CCN(c2cn(-c3ccccc3)c3ccc(Cl)cc23)CC1 [Lu 23-015, 5-Chloro-3-(4-methylpiperazino)-1-phenyl-1H-indole, reference compound]
Qvipaz. inh. ED50(sc) [1]: 0.062 µmol/kg
Catalep. ED50(po) 1-6 h ([2]; po, rat, 1-6 h): 12.0 µmol/kg
Catalep. ED50(po) 24 h ([2]; po, rat, 24 h): > 15 µmol/kg
MePh Antg. ED50(ip) [3, 9]: 8.8 µmol/kg
pIC50 [4]: 8.41
pIC50 [6, 10]: 7.92
effects in the pharmacological testing [8]: without interesting effects

OCCN1CC=C(c2c[nH]c3ccc(Cl)cc23)CC1 [Lu 23-143, 5-chloro-3-(1-(2-hydroxyethyl)-1,2,3,6-tetrahydropyrid-4-yl)indol, reference compound]
Qvipaz. inh. ED50(sc) [1]: 4.5 µmol/kg
ED50 [2, 11]: > 18 µmol/kg
ED50 ([2]; Rattus norvegicus, sc, read-out: Catalep. ED50 (sc) 1-6 h): > 18 µmol/kg
ED50 ([3]; sc, read-out: MePh Antg. ED50 (sc)): 72 µmol/kg
effects in the pharmacological testing [8]: almost inactive compared with the compounds of Formula I
